In brackets after ≈: the same amount, converted by molar mass.
Experiment: Saturation solubilities of the oligopeptide (cilengitide) in the solvent indicated, with pH
Format: physicochemical
Details: in physiological saline solution
Method: In order to determine the saturation solubilities, the oligopeptide was stirred for 1 hour at room temperature in the solvent indicated in each case.
Analogously to Example 1, the effect of addition of β-cyclodextrin ethers (MS 0.63) on the saturation solubilities of the oligopeptides was determined using the example of cilengitide.

CC(C)[C@H]1C(=O)N[C@@H](CCCN=C(N)N)C(=O)NCC(=O)N[C@@H](CC(=O)O)C(=O)N[C@H](Cc2ccccc2)C(=O)N1C [Cilengitide, cyclo-(Arg-Gly-Asp-D-Phe-NMe-Val)]
solubility at 1 h: ~19 mg/mL (≈ 32.3 mM)

Reference: patent US7262165B2, “Aqueous preparation containing oligopeptides and etherified cyclodextrin” (Merck Patent GmbH, priority 2002, dated 2007)
